The values below come from US20250049831A1, “ANTIVIRAL USE OF BISE[…], AND BISEPOXYLIGNAN COMPOSITION AND PREPARATION OF BISE[…]” (priority 2021, published 2025).

Series [1] deals with COVID-19 virus. Put plainly: In-vitro antiviral CPE test in Vero E6 cells, COVID-19 virus. The series is classed as cell-based. Conditions: Vero E6 cells, 100 TCID50, CPE after 3-4 days; unit not given (drug concentrations 250-15.62 μg/mL); in µg/mL.
Series [2] concerns Vero cells. Put plainly: Drug cytotoxicity assay (MTT) on Vero cells. The series is classed as cell-based, African green monkey. Conditions: 72 h, Probit regression. The source says:
Vero cells were subcultured for 1-2 d to make them into flakes, and trypsinized in the presence of clear boundaries, strong three-dimensional sense and strong refractive power, until needle-like holes appeared on the cell surfaces; after the trypsinization solution was absorbed completely, a few milliliters of culture medium were taken to blow away the cells; the cells were counted, diluted to about 5×10^7/L with a culture medium (DMEM containing 10% fetal bovine serum), and then inoculated in a 96-well culture plate; and the cells grew into a monolayer.
Cytotoxicity test: the drugs were diluted at the concentrations shown in Table 3-1 for cytotoxicity assay.

In series [3] the test system is influenza virus. Description: Effect of drug on virus-induced CPE (MTT, antiviral effective rate), influenza virus in Vero cells. The class given is cell-based.
Series [4] relates to parainfluenza virus. Description: Effect of drug on virus-induced CPE (MTT, antiviral effective rate), parainfluenza virus in Vero cells. The class given is cell-based.

`COc1ccc([C@H]2OC[C@H]3[C@@H]2CO[C@H]3c2ccc(O[C@@H]3O[C@H](CO)[C@@H](O)[C@H](O)[C@H]3O)c(OC)c2)cc1OC` [compound 2]: in series [1], the “COVID-19 virus IC50” value was 63.3. Further, in series [2], the “Maximum non-toxic concentration (TC0)” value is listed as 0.0067 g/L and the “Median toxic concentration (TC50)” value stood at 560 µg/mL. In addition, the “Effective rate, ER %, Influenza Virus” value in series [3] was found to be 85.94%. Moreover, the “Effective rate, ER %, Parainfluenza Virus” value in series [4] was found to be 94.43%.
For `COc1ccc(C2OCC3C(c4ccc(OC)c(OC)c4)OCC23)cc1O` (stereo not drawn) [compound 3], in that order: 166.5, 0.012 g/L, 310 µg/mL, 83.10% and 91.41%.
As for `COc1ccc(C2OCC3C(c4ccc(OC(=O)C(C)c5ccc(CC(C)C)cc5)c(OC)c4)OCC23)cc1OC` (stereo not drawn) [compound 6], the “COVID-19 virus IC50” value in series [1] amounted to 161.8. Also, in series [2], the “Maximum non-toxic concentration (TC0)” value came to 0.012 g/L and the “Median toxic concentration (TC50)” value came to 310 µg/mL. Further, the “Effective rate, ER %, Influenza Virus” value in series [3] was 84.51%. Moreover, the “Effective rate, ER %, Parainfluenza Virus” value in series [4] was 93.96%.
